Assay results as given in the supplement of paper PMC10307832.

How the values were obtained:
Experiment in all cases: relative viability (nuclei count vs DMSO), 5 days (fraction); higher = more cells survive
RU-SKI 43 + Bortezomib = compound: CC[C@@H](C)CNCC(=O)N1CCC2=C([C@@H]1COC3=CC=CC(=C3)C)C=CS2 [RU-SKI 43] + CC(C)C[C@H](NC(=O)[C@H](Cc1ccccc1)NC(=O)c1cnccn1)B(O)O [Bortezomib] (partner 0.002 µM)
Summary of the method: (§1)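 For relative viability, nuclei counts in treated wells were divided by those in vehicle wells. Lung cancer cell lines had been pin-tool dosed in 1536-well plates the day after seeding and cultured for 5 days, then fixed and stained in one step (final 0.05% Triton X-100, 1% formaldehyde, 1 ug/ml Hoechst) and imaged at 4×. Doses were one drug alone or a fixed anchor-drug dose plus five library-drug doses (not always all listed) in √10 steps, and values are duplicate-plate medians.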

RU-SKI 43 + Linsitinib = compound: CC[C@@H](C)CNCC(=O)N1CCC2=C([C@@H]1COC3=CC=CC(=C3)C)C=CS2 [RU-SKI 43] + C[C@]1(O)C[C@@H](c2nc(-c3ccc4ccc(-c5ccccc5)nc4c3)c3c(N)nccn32)C1 [Linsitinib] (partner 1 µM)
Summary of the method: as §1

Irinotecan + Pemetrexed = compound: CCc1c2c(nc3ccc(OC(=O)N4CCC(N5CCCCC5)CC4)cc13)-c1cc3c(c(=O)n1C2)COC(=O)[C@]3(O)CC [Irinotecan] + Nc1nc2[nH]cc(CCc3ccc(C(=O)N[C@@H](CCC(=O)O)C(=O)O)cc3)c2c(=O)[nH]1 [Pemetrexed] (partner 0.2 µM)
Summary of the method: as §1

MK-8033 + OSI-027 = compound: Cn1cc(-c2cnc3ccc4ccc(CS(=O)(=O)NCc5ccccn5)cc4c(=O)c3c2)cn1 [MK-8033] + COc1cccc2cc(-c3nc([C@H]4CC[C@H](C(=O)O)CC4)n4ncnc(N)c34)[nH]c12 [OSI-027] (partner 0.5 µM)
Summary of the method: as §1

Row | Cell Line | relative viability (RU-SKI 43 + Bortezomib; first compound 0.1 µM) | relative viability (RU-SKI 43 + Bortezomib; first compound 0.3162 µM) | relative viability (RU-SKI 43 + Bortezomib; first compound 1 µM) | relative viability (RU-SKI 43 + Bortezomib; first compound 3.162 µM) | relative viability (RU-SKI 43 + Bortezomib; first compound 10 µM) | relative viability (RU-SKI 43 + Linsitinib; first compound 0.1 µM) | relative viability (RU-SKI 43 + Linsitinib; first compound 0.3162 µM) | relative viability (RU-SKI 43 + Linsitinib; first compound 1 µM) | relative viability (RU-SKI 43 + Linsitinib; first compound 3.162 µM) | relative viability (RU-SKI 43 + Linsitinib; first compound 10 µM) | relative viability (Irinotecan + Pemetrexed; first compound 0.6325 µM) | relative viability (Irinotecan + Pemetrexed; first compound 2 µM) | relative viability (Irinotecan + Pemetrexed; first compound 6.325 µM) | relative viability (Irinotecan + Pemetrexed; first compound 20 µM) | relative viability (MK-8033 + OSI-027; first compound 0.02 µM) | relative viability (MK-8033 + OSI-027; first compound 0.06325 µM) | relative viability (MK-8033 + OSI-027; first compound 0.2 µM) | relative viability (MK-8033 + OSI-027; first compound 0.6325 µM) | relative viability (MK-8033 + OSI-027; first compound 2 µM)
1 | HCC-366 | 1.11 | 1.39 | 1.24 | 1.24 | 1.07 | 0.604 | 1.83 | 0.694 | 0.608 | 0.592 | 0.15 | 0.192 | 0.0569 | 0.0611 | 1.1 | 0.85 | 0.838 | 0.945 | 0.791
2 | HCC-827 | 0.989 | 1.07 | 1.18 | 1.11 | 1.02 | 0.96 | 0.936 | 1.04 | 1.02 | 0.734 | 0.264 | 0.236 | 0.248 | 0.206 | 0.774 | – | 0.735 | 0.801 | 0.758
3 | HOP-62 | 0.728 | 0.561 | 1.01 | 0.731 | 0.765 | 1.04 | 0.938 | 1.1 | 1.17 | 1.04 | 0.0967 | 0.337 | 0.17 | 0.166 | 0.83 | 0.821 | 0.756 | 0.84 | 0.896
4 | IA-LM | 0.798 | 0.759 | 1.12 | 0.912 | 0.745 | 0.623 | 0.563 | 0.512 | 0.552 | 0.577 | – | – | – | – | – | – | – | – | –
5 | LC-2-ad | 1.03 | 1.21 | 1.06 | 1.1 | 0.867 | 0.818 | 0.831 | 0.899 | 0.857 | 0.726 | 0.325 | 0.271 | 0.259 | 0.151 | 0.806 | 0.91 | – | 0.884 | 0.789
6 | LCLC-97TM1 | 0.852 | 0.827 | 1.79 | 0.684 | 0.645 | 0.221 | – | 0.172 | 0.201 | 0.182 | 0.124 | 0.196 | 0.129 | 0.133 | 0.519 | 0.456 | 0.431 | 0.592 | 0.568
7 | LCLC-103H | 0.969 | 1.09 | 1.31 | 1.1 | 0.985 | 1.04 | 1.11 | 1.05 | 1.2 | 1.15 | 0.477 | 0.471 | 0.508 | 0.516 | 0.412 | 0.469 | 0.437 | 0.448 | 0.509
8 | LK-2 | – | – | – | – | – | 0.74 | 0.564 | 0.674 | 0.495 | 0.889 | 0.227 | 0.343 | 0.182 | 0.336 | 0.202 | 0.227 | 0.22 | 0.189 | 0.276
9 | NCI-H358 | – | – | – | – | – | 0.706 | 0.781 | 0.819 | 0.933 | 0.687 | 0.167 | 0.19 | 0.146 | 0.167 | 0.799 | 0.64 | 0.613 | 0.812 | 0.58
10 | NCI-H522 | – | – | – | – | – | – | – | – | – | – | 0.966 | 0.824 | 0.566 | 0.498 | 0.806 | 0.627 | 0.661 | 0.729 | 0.722
11 | NCI-H727 | 1 | 1.14 | 0.834 | 0.839 | 0.802 | 0.31 | 0.244 | 0.335 | 0.223 | 0.242 | – | – | – | – | 0.667 | – | 0.652 | 0.583 | 0.551
12 | NCI-H1299 | 0.985 | 1.04 | 1.06 | 1.05 | 1.02 | 1.03 | 1.2 | 1.1 | 1.04 | 0.965 | – | – | – | – | – | – | – | – | –
13 | NCI-H1395 | – | – | – | – | – | 0.994 | 1.43 | 1.1 | 0.968 | 1.15 | – | 0.754 | 0.518 | 0.246 | 0.557 | 0.555 | 0.601 | 0.644 | 0.615
14 | NCI-H1623 | – | – | – | – | – | – | – | – | – | – | – | – | – | – | 0.411 | 0.409 | 0.495 | 0.442 | 0.477
15 | NCI-H1648 | – | – | – | – | – | – | – | – | – | – | 0.703 | 0.68 | 0.453 | 0.423 | – | 0.261 | 0.261 | – | 0.25
16 | NCI-H1650 | 0.204 | 0.208 | 0.222 | 0.209 | 0.192 | – | – | – | – | – | 0.365 | 0.373 | 0.282 | 0.111 | 0.677 | 0.404 | 0.568 | 0.644 | 0.485
17 | NCI-H1703 | 0.345 | 0.227 | 0.371 | 0.282 | 0.227 | 0.653 | 1.02 | 0.545 | 0.636 | 0.503 | – | – | – | – | – | – | – | – | –
18 | NCI-H1793 | – | – | – | – | – | 0.98 | 0.959 | 0.988 | 0.928 | 0.809 | – | 0.699 | 0.395 | 0.253 | 0.247 | 0.253 | 0.233 | 0.282 | 0.2
19 | NCI-H1944 | – | – | – | – | – | 1.24 | 1.2 | 1.34 | 1.24 | 1.15 | 0.553 | 0.516 | 0.284 | 0.175 | 0.436 | 0.292 | 0.4 | 0.4 | 0.404
20 | NCI-H2170 | – | – | – | – | – | – | – | – | – | – | 0.277 | 0.245 | 0.238 | 0.151 | 0.682 | 0.639 | 0.7 | 0.732 | 0.707
21 | NCI-H2342 | – | – | – | – | – | – | – | – | – | – | 0.452 | 0.807 | 0.845 | 0.461 | 0.588 | 0.64 | 0.719 | 0.665 | 0.632
22 | SK-MES-1 | – | – | – | – | – | 1.03 | 1.1 | 1.18 | 1.04 | 1.01 | 0.839 | 0.808 | 0.312 | 0.142 | 0.621 | 0.592 | 0.566 | 0.605 | 0.535
23 | SW 900 | – | – | – | – | – | – | – | – | – | – | – | 0.538 | 0.36 | 0.406 | 0.597 | 0.437 | 0.515 | 0.448 | 0.597
